This experiment deals with ROCK1 (Homo sapiens (Human), UniProt Q13464). In words: ROCK1 kinase IC50 assay (biological test method similar to the ROCK2 assay). In kind it is biochemical. A digest of the protocol: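 HTRF KinEASE-STK S2 assay with the STK-S2 biotinylated substrate and ATP, at 5× working solutions of 1.5 µM each. Kinase reaction with 9-point compound dilutions ran 2 h at room temperature, followed by 1 h streptavidin-XL665/Cryptate detection. The 665/615 nm ratio was normalised to no-compound and no-kinase wells, and IC50 was obtained by curve fitting.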

The structures appear in SMILES notation. Some results are limits rather than exact numbers.

Sequence of ROCK1 (Q13464 whole entry, species assumed): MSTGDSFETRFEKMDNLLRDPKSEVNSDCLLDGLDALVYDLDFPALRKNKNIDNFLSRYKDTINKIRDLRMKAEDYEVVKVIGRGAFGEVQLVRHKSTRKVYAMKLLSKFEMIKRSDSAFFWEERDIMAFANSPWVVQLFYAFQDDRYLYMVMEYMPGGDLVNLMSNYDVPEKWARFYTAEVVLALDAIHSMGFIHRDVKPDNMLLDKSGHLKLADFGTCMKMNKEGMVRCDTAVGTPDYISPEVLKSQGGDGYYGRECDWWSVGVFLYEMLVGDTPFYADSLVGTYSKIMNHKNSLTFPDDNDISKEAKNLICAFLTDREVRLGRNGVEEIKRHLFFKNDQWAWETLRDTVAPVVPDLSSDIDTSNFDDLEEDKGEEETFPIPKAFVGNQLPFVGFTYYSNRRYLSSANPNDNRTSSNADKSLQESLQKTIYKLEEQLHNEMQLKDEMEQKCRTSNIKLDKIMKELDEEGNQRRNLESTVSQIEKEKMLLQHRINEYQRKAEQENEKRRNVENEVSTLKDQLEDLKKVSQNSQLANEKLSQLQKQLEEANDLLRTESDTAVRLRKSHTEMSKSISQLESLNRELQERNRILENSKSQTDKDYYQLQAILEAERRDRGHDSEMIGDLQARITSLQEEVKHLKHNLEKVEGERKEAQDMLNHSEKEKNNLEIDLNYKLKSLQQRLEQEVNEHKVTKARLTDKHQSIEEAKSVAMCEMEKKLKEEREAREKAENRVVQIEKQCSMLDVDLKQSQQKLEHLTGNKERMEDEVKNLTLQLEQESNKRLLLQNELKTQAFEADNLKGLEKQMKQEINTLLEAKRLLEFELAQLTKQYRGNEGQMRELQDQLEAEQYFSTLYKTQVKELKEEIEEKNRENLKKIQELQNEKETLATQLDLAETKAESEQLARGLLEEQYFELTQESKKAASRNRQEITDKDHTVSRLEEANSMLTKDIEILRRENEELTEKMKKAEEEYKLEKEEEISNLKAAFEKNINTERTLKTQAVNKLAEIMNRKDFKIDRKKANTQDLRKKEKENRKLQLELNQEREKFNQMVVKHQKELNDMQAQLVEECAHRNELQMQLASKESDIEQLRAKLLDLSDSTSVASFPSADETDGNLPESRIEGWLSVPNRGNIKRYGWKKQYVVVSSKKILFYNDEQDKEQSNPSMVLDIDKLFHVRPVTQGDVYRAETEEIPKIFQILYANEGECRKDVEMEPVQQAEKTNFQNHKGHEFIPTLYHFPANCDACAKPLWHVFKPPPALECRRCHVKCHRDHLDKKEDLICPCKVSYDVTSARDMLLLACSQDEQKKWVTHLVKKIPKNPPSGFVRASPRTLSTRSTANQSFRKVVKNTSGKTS

What is called IC50 is the point on the concentration scale where inhibition reaches its midpoint. A high value points to weaker potency in that assay. `O=C(Nc1cccnc1)c1cc2ccc(-c3nccc(Nc4ccc(-c5cn[nH]c5)cc4)n3)cc2[nH]1` [TDI01397, 6-(4-((4-(1H-pyrazol-4-yl)phenyl)-amino)-pyrimidin-2-yl)-N-(pyridin-3-yl)-1H-indole-2-carboxamide] gave an IC50 of 6 µM.
In the case of `N#CC1CN(C(=O)c2cc3ccc(-c4nccc(Nc5ccc(-c6cn[nH]c6)cc5)n4)cc3[nH]2)C1` [TDI01398, 1-(6-(4-((4-(1H-pyrazol-4-yl)phenyl)-amino)-pyrimidin-2-yl)-1H-indole-2-carbonyl)-azetidine-3-carbonitrile] it was more than 10 µM; in that of `CCNC(=O)N1Cc2ccc(-c3nccc(Nc4ccc(-c5cn[nH]c5)cc4)n3)cc2C1` [TDI01411, 5-(4-((4-(1H-pyrazol-4-yl)phenyl)amino)pyrimidin-2-yl)-N-ethylisoindoline-2-carboxamide], more than 10 µM; in that of `CCN(CCO)C(=O)c1cc2ccc(-c3nccc(Nc4ccc(-c5cn[nH]c5)cc4)n3)cc2[nH]1` [TDI01415, 6-(4-((4-(1H-pyrazol-4-yl)phenyl)-amino)-pyrimidin-2-yl)-N-ethyl-N-(2-hydroxyethyl)-1H-indole-2-carboxamide], 3.71 µM.
In the case of `CN(C(=O)c1cc2ccc(-c3nccc(Nc4ccc(-c5cn[nH]c5)cc4)n3)cc2[nH]1)C1CC(O)C1` (stereo not drawn) [TDI01418, 6-(4-((4-(1H-pyrazol-4-yl)phenyl)amino)pyrimidin-2-yl)-N-(3-hydroxycyclobutyl)-N-methyl-1H-indole-2-carboxamide] it was 5.38 µM; in that of `CN(C(=O)c1cc2ccc(-c3nccc(Nc4ccc(-c5cn[nH]c5)cc4)n3)cc2[nH]1)C1CCC1` [TDI01420, 6-(4-((4-(1H-pyrazol-4-yl)phenyl)amino)pyrimidin-2-yl)-N-cyclobutyl-N-methyl-1H-indole-2-carboxamide], 9.29 µM.
In the case of `CN(C(=O)c1cc2ccc(-c3nccc(Nc4ccc(-c5cn[nH]c5)cc4)n3)cc2[nH]1)c1ccncc1` [TDI01421, 6-(4-((4-(1H-pyrazol-4-yl)phenyl)-amino)-pyrimidin-2-yl)-N-methyl-N-(pyridin-4-yl)-1H-indole-2-carboxamide] it was 5.94 µM.
`O=C(NC1CCOC1)c1cc2ccc(-c3nc(Nc4ccc(-c5cn[nH]c5)cc4)c4sccc4n3)cc2[nH]1` (stereo not drawn) [TDI01423, 6-(4-((4-(1H-pyrazol-4-yl)phenyl)-amino)-thieno-[3,2-d]-pyrimidin-2-yl)-N-(tetrahydro-furan-3-yl)-1H-indole-2-carboxamide] registered an IC50 of more than 10 µM.
For the compound `O=C(NC1CCC1)c1cc2ccc(-c3nc(Nc4ccc(-c5cn[nH]c5)cc4)c4sccc4n3)cc2[nH]1` [TDI01424, 6-(4-((4-(1H-pyrazol-4-yl)phenyl)-amino)-thieno-[3,2-d]-pyrimidin-2-yl)-N-cyclobutyl-1H-indole-2-carboxamide], inhibition was half-maximal at 4.98 µM (IC50).
In the case of `O=C(c1cc2ccc(-c3nccc(Nc4ccc(-c5cn[nH]c5)cc4)n3)cc2[nH]1)N1CCC2(CCNCC2)CC1` [TDI01425, (6-(4-((4-(1H-pyrazol-4-yl)phenyl)-amino)-pyrimidin-2-yl)-1H-indol-2-yl)(3,9-diazaspiro[5.5]undecan-3-yl)methanone] it was 2.94 µM; in that of `CN(CC(F)(F)F)C(=O)c1cc2ccc(-c3ncc(F)c(Nc4ccc(-c5cn[nH]c5)cc4)n3)cc2[nH]1` [TDI01426, 6-(4-((4-(1H-pyrazol-4-yl)phenyl)amino)-5-fluoropyrimidin-2-yl)-N-methyl-N-(2,2,2-trifluoroethyl)-1H-indole-2-carboxamide], more than 10 µM; in that of `CN(CC#N)C(=O)c1cc2ccc(-c3nccc(Nc4ccc(-c5cn[nH]c5)cc4)n3)cc2[nH]1` [TDI01430, 6-(4-((4-(1H-pyrazol-4-yl)phenyl)amino)pyrimidin-2-yl)-N-(cyanomethyl)-N-methyl-1H-indole-2-carboxamide], more than 10 µM.
In the case of `O=C(c1cc2ccc(-c3nccc(Nc4ccc(-c5cn[nH]c5)cc4)n3)cc2[nH]1)N1CC(C(F)(F)F)C1` [TDI01433, (6-(4-((4-(1H-pyrazol-4-yl)phenyl)amino)pyrimidin-2-yl)-1H-indol-2-yl)(3-(trifluoromethyl)azetidin-1-yl)methanone] it was 1.97 µM; in that of `O=C(c1cc2ccc(-c3nccc(Nc4ccc(-c5cn[nH]c5)cc4)n3)cc2[nH]1)N1CC(F)(F)C1` [TDI01434, (6-(4-((4-(1H-pyrazol-4-yl)phenyl)ami-no)pyrimidin-2-yl)-1H-indol-2-yl)(3,3-difluoroazetidin-1-yl)methanone], more than 10 µM; in that of `O=C(c1cc2ccc(-c3nccc(Nc4ccc(-c5cn[nH]c5)cc4)n3)cc2[nH]1)N1CC(C(F)F)C1` [TDI01435, (6-(4-((4-(1H-pyrazol-4-yl)phenyl)amino)pyrimidin-2-yl)-1H-indol-2-yl)(3-(difluoromethyl)azetidin-1-yl)methanone], 1.23 µM.
The value for `CN(CCC#N)C(=O)c1cc2ccc(-c3nccc(Nc4ccc(-c5cn[nH]c5)cc4)n3)cc2[nH]1` [TDI01442, 6-(4-((4-(1H-pyrazol-4-yl)phenyl)amino)pyrimidin-2-yl)-N-(2-cyanoethyl)-N-methyl-1H-indole-2-carboxamide] was more than 10 µM; that for `O=C(N1Cc2ccc(-c3nccc(Nc4ccc(-c5cn[nH]c5)cc4)n3)cc2C1)N1CC(F)(F)C1` [TDI01467] was more than 10 µM; that for `Cn1c(C(=O)N2CC(F)(F)C2)cc2ccc(-c3nccc(Nc4ccc(-c5cn[nH]c5)cc4)n3)cc21` [TDI01470, (6-(4-((4-(1H-pyrazol-4-yl)phenyl)amino)pyrimidin-2-yl)-1-methyl-1H-indol-2-yl)(3,3-difluoroazetidin-1-yl)methanone] was more than 10 µM.
`CCN(CC)C(=O)c1cc2ccc(-c3ncc(OC)c(Nc4ccc(-c5cn[nH]c5)cc4)n3)cc2[nH]1` [TDI01823, 6-(4-((4-(1H-pyrazol-4-yl)phenyl)-amino)-5-methoxy-pyrimidin-2-yl)-N,N-diethyl-1H-indole-2-carboxamide] came in with a half-inhibitory concentration (IC50) of more than 10 µM.
In the case of `N#Cc1cnccc1NC(=O)c1cc2ccc(-c3nccc(Nc4ccc(-c5cn[nH]c5)cc4)n3)cc2[nH]1` [TDI01829B, 6-(4-((4-(1H-pyrazol-4-yl)phenyl)amino)pyrimidin-2-yl)-N-(3-cyanopyridin-4-yl)-1H-indole-2-carboxamide] it was more than 10 µM; in that of `O=C(Nc1ccncc1I)c1cc2ccc(-c3nccc(Nc4ccc(-c5cn[nH]c5)cc4)n3)cc2[nH]1` [TDI01829C, 6-(4-((4-(1H-pyrazol-4-yl)phenyl)-amino)-pyrimidin-2-yl)-N-(3-iodopyridin-4-yl)-1H-indole-2-carboxamide], more than 10 µM.
In the case of `O=C(c1cc2ccc(-c3nccc(Nc4ccc(-c5cn[nH]c5)c(F)c4)n3)cc2[nH]1)N1CC(F)(F)C1` [TDI01842B, (3,3-difluoroazetidin-1-yl)(6-(4-((3-fluoro-4-(1H-pyrazol-4-yl)phenyl)ami-no)pyrimidn-2-yl)-1H-indol-2-yl)methanone] it was 2.77 µM; in that of `O=C(NC1CCN(c2ccncc2Cl)CC1)c1cc2ccc(-c3nccc(Nc4ccc(-c5cn[nH]c5)cc4)n3)cc2[nH]1` [TDI01847B, 6-(4-((4-(1H-pyrazol-4-yl)phenyl)-amino)-pyrimidin-2-yl)-N-(1-(3-chloropyridin-4-yl)piperidin-4-yl)-1H-indole-2-carboxamide], 3.38 µM; in that of `O=C(c1cc2ccc(-c3nccc(Nc4ccc(-c5cn[nH]c5)cc4)n3)cc2[nH]1)N1CCO[C@@H](CO)C1` [TDI01852], more than 10 µM.
Compound `O=C(c1cc2ccc(-c3nccc(Nc4ccc(-c5cn[nH]c5)cc4)n3)cc2[nH]1)N1CCOC[C@H]1CO` [TDI01853, (R)-(6-(4-((4-(1H-pyrazol-4-yl)phenyl)-amino)-pyrimidin-2-yl)-1H-indol-2-yl)(3-(hydroxy-methyl)-morpholino)-methanone] registered an IC50 of 2.83 µM.
With `C[C@H](CN)NC(=O)c1cc2ccc(-c3nccc(Nc4ccc(-c5cn[nH]c5)cc4)n3)cc2[nH]1` [TDI01855, (R)-6-(4-((4-(1H-pyrazol-4-yl)phenyl)-amino)-pyrimidin-2-yl)-N-(1-aminopropan-2-yl)-1H-indole-2-carboxamide], the 50% inhibitory concentration (IC50) turned out to be 5.42 µM.
In the case of `C[C@@H](CN)NC(=O)c1cc2ccc(-c3nccc(Nc4ccc(-c5cn[nH]c5)cc4)n3)cc2[nH]1` [TDI01856, (S)-6-(4-((4-(1H-pyrazol-4-yl)phenyl)-amino)-pyrimidin-2-yl)-N-(1-aminopropan-2-yl)-1H-indole-2-carboxamide] it was 2.04 µM.
The compound `Fc1cc(Nc2ccnc(-c3ccc4cc(-c5nccs5)[nH]c4c3)n2)ccc1-c1cn[nH]c1` [TDI01908, N-(3-fluoro-4-(1H-pyrazol-4-yl)phenyl)-2-(2-(thiazol-2-yl)-1H-indol-6-yl)pyrimidin-4-amine] displayed an IC50 of more than 10 µM.
The value for `Cn1c(C(=O)N2CC(F)(F)C2)cc2ccc(-c3ncc(F)c(Nc4ccc(-c5cn[nH]c5)cc4)n3)cc21` [TDI01932] was more than 10 µM; that for `O=C(C1CC(F)(F)C1)N1Cc2ccc(-c3ncc(F)c(Nc4ccc(-c5cn[nH]c5)cc4)n3)cc2C1` [TDI01978, (5-(4-((4-(1H-pyrazol-4-yl)phenyl)amino)-5-fluoropyrimidin-2-yl)isoindolin-2-yl)(3,3-difluorocyclobutyl) methanone] was more than 10 µM.

These data come from patent US11390609B2, “Rho-associated protein kinase inhibitor, pharmaceutical composition comprising same, and preparation method and use thereof” (BEIJING TIDE PHARMACEUTICAL CO., LTD., priority 2017, dated 2022).
